Reference: the NIST ThermoML archive (doi:10.1016/j.tca.2011.05.006)
Numbers after ± are expanded uncertainties.

Assays:
[1] = xn = mol fraction of the nth substance listed; details: 101 kPa, Liquid, Vibrating tube method
[2] = 101 kPa, Liquid, Vibrating tube method

CC(C)NC(C)C [diisopropylamine] + CCO
mass density [kg/m3], [1]
Details | 293.15 K | 298.15 K | 303.15 K | 313.15 K
x1 = 0.0808 | 788.65 ± 0.24 | 783.48 ± 0.24 | 777.89 ± 0.24 | 767.17 ± 0.24
x1 = 0.1601 | 784.61 ± 0.24 | 779.32 ± 0.24 | 773.64 ± 0.24 | 762.87 ± 0.24
x1 = 0.2386 | 779.98 ± 0.24 | 774.56 ± 0.24 | 768.86 ± 0.24 | 758.28 ± 0.24
x1 = 0.3497 | 772.63 ± 0.24 | 767.12 ± 0.24 | 761.5 ± 0.2 | 751.13 ± 0.24
x1 = 0.4411 | 766.01 ± 0.24 | 760.55 ± 0.24 | 755.15 ± 0.24 | 744.76 ± 0.24
x1 = 0.5532 | 757.4 ± 0.2 | 752.37 ± 0.24 | 747.04 ± 0.24 | 736.47 ± 0.24
x1 = 0.65 | 749.49 ± 0.24 | 744.83 ± 0.24 | 739.74 ± 0.24 | 728.89 ± 0.24
x1 = 0.7395 | 742.16 ± 0.24 | 737.7 ± 0.24 | 732.71 ± 0.24 | 721.68 ± 0.24
x1 = 0.8478 | 733.27 ± 0.24 | 728.73 ± 0.24 | 723.74 ± 0.24 | 712.63 ± 0.25
x1 = 0.9385 | 725.8 ± 0.2 | 720.86 ± 0.24 | 715.91 ± 0.25 | 704.95 ± 0.25
x1 = 1 | 720.89 ± 0.24 | 715.35 ± 0.24 | 710.23 ± 0.24 | 699.71 ± 0.25

CC(C)NC(C)C [diisopropylamine] + CO
mass density [kg/m3], [1]
Details | 293.15 K | 298.15 K | 303.15 K | 313.15 K
x1 = 0.0808 | 789.98 ± 0.24 | 785.35 ± 0.24 | 779.68 ± 0.24 | 768.72 ± 0.24
x1 = 0.1599 | 786.75 ± 0.24 | 781.66 ± 0.24 | 776.01 ± 0.24 | 764.23 ± 0.24
x1 = 0.2399 | 782.33 ± 0.24 | 777.02 ± 0.24 | 771.2 ± 0.24 | 758.93 ± 0.24
x1 = 0.3477 | 774.9 ± 0.24 | 769.38 ± 0.24 | 763.6 ± 0.24 | 751.16 ± 0.24
x1 = 0.4444 | 767.44 ± 0.24 | 761.76 ± 0.24 | 756.06 ± 0.24 | 744.11 ± 0.24
x1 = 0.5563 | 757.92 ± 0.24 | 752.29 ± 0.24 | 746.8 ± 0.24 | 735.46 ± 0.24
x1 = 0.6507 | 749.84 ± 0.24 | 744.22 ± 0.24 | 738.78 ± 0.24 | 727.96 ± 0.24
x1 = 0.7388 | 742.2 ± 0.24 | 736.62 ± 0.24 | 731.3 ± 0.24 | 720.89 ± 0.24
x1 = 0.8482 | 732.94 ± 0.24 | 727.37 ± 0.24 | 722.19 ± 0.24 | 712.05 ± 0.25
x1 = 0.94 | 725.56 ± 0.24 | 719.98 ± 0.24 | 714.87 ± 0.24 | 704.62 ± 0.25
x1 = 1 | 720.89 ± 0.24 | 715.35 ± 0.24 | 710.23 ± 0.24 | 699.71 ± 0.25

CCO [ethanol]
[2]
Details | mass density [kg/m3]
293.15 K | 792.17 ± 0.24
298.15 K | 786.71 ± 0.24
303.15 K | 781.3 ± 0.24
313.15 K | 771.14 ± 0.24

CCO [ethanol] + CC(C)NC(C)C
[1], x2 = 0
Details | mass density [kg/m3]
293.15 K | 792.17 ± 0.24
298.15 K | 786.71 ± 0.24
303.15 K | 781.3 ± 0.24
313.15 K | 771.14 ± 0.24

CO [methanol]
[2]
Details | mass density [kg/m3]
293.15 K | 791.72 ± 0.24
298.15 K | 787.35 ± 0.24
303.15 K | 782.24 ± 0.24
313.15 K | 772.73 ± 0.24

CO [methanol] + CC(C)NC(C)C
[1], x2 = 0
Details | mass density [kg/m3]
293.15 K | 791.72 ± 0.24
298.15 K | 787.35 ± 0.24
303.15 K | 782.24 ± 0.24
313.15 K | 772.73 ± 0.24

CCCCCO [pentan-1-ol]
[2]
Details | mass density [kg/m3]
293.15 K | 814.8 ± 0.24
298.15 K | 810.82 ± 0.24
303.15 K | 807.07 ± 0.24
313.15 K | 799.4 ± 0.24

CCCCCO [pentan-1-ol] + CC(C)NC(C)C
[1], x2 = 0
Details | mass density [kg/m3]
293.15 K | 814.8 ± 0.24
298.15 K | 810.82 ± 0.24
303.15 K | 807.07 ± 0.24
313.15 K | 799.4 ± 0.24

CCCO [propan-1-ol]
[2]
Details | mass density [kg/m3]
293.15 K | 800.03 ± 0.24
298.15 K | 797.81 ± 0.24
303.15 K | 795.05 ± 0.24
313.15 K | 787.95 ± 0.24

CCCO [propan-1-ol] + CC(C)NC(C)C
[1], x2 = 0
Details | mass density [kg/m3]
293.15 K | 800.03 ± 0.24
298.15 K | 797.81 ± 0.24
303.15 K | 795.05 ± 0.24
313.15 K | 787.95 ± 0.24
